According to patent US20250199015A1, “CYCLIN-DEPENDENT KINASE 2 INHIBITORS FOR MEDICAL TREATMENT” (INCYCLIX BIO, LLC, priority 2022, published 2025):

What was measured:
H69 (NCIH69) cells = experiment: CellTiter Glo cell proliferation assay (single agent and chemotherapy combination); type: cell-based, human
Description: (§1) Plates returned to incubator for six additional days. On day six post dosing, plates were removed and treated with CellTiter Glo reagent following manufacturer's specifications. Plates incubated 45 minutes at room temperature and run on a Biotek luminometer with 1 sec/well detection. Results were converted to Microsoft Excel and transferred to GraphPad Prism for analysis.
(§2) Dose curves ranged from 300 pM to 10 μM in triplicate and treatments lasted for 6 days. Plates were removed from incubator at each specified timepoint and treated with CellTiter-Glo (Promega, Inc) following manufacturer specifications. Plates were then read on CLARIOstar luminometer with 1 sec/well integration.
as §2, with “integration. Results were converted to Microsoft Excel and transferred to GraphPad Prism for Analysis.” for “integration.”

SHP77 cells = experiment: as above; type: cell-based, human
Description: as §1, §2
as §2, with “integration. Results were converted to Microsoft Excel and transferred to GraphPad Prism for Analysis.” for “integration.”

[1] = tested on: pRb, p21, p27, phosphorylated CHK2 in MKN1 cells; experiment: Western blot pRb and cell cycle proteins; type: cell-based, human; settings: 30-1000 nM, 24 hours
Description: The MKN1 human stomach carcinoma cell line was grown in RPMI-1640/1× Glutamax/10% heat inactivate fetal bovine serum and was plated at 300,000 cells/well in Corning 6 well tissue culture treated plates. Cells were incubated at 37° C. for 24 hours prior to addition of 2 replicates of 0.1% DMSO control and 1 replicate for each treatment. […] Cells were collected by washing each well twice with cold PBS, then scraping cells in the presence of 150 μL cold RIPA with protease and phosphatase inhibitors. Lysates were clarified by centrifugation at 14,000×g for 10 min at 4° C. and supernatants transferred to clean tubes. A BCA assay was performed to determine the protein concentration of each lysate. A total of 30 μg of protein was mixed with sample buffer and reducing agent before being run on a 4-12% SDS-PAGE. Protein was transferred to a nitrocellulose membrane and blocked with LI-COR blocking buffer for 1 hr. Membranes were incubated overnight in primary antibody at 4° C. Following 3 washes with TBS-T, membranes were incubated for 45 minutes in LI-COR secondary antibodies. Following 2 washes in TBS-T, and one TBS wash, membranes were scanned using a LI-COR OdysseyCLx. Image studio was used for image analysis.

OVCAR-3 cells = experiment: Cell cycle by EdU flow cytometry (dose, time, washout, tracing); type: cell-based, human
Description: Cells were plated at 100,000 cells/well in Corning 6 cm tissue culture treated plates. […] Cells were collected and fixed in 1% paraformaldehyde. Cells were incubated with Alexa488 azide dye as described by Thermo Scientific. Cells were then incubated with Fxcycle-violet and RNase. Cells were analyzed on a BD Celesta and data compiled using FloJo and GraphPad.
The OVCAR3 human ovarian carcinoma cell line was grown in RPMI-1640/1× Glutamax/1× Insulin/10% fetal bovine serum and was plated at 300,000 cells/well in Corning 6 cm tissue culture treated plates. […] Cells were treated for the indicated amount of time (24 hours or 48 hours), with 10 μM EdU added for the last hour of treatment. Cells were collected and fixed in 1% paraformaldehyde. Cells were incubated with Alexa 488 (A488) azide dye as described by Thermo Scientific. Cells were then incubated with FarRed dye and RNase. Cells were analyzed on a BD Celesta and data compiled using FloJo and GraphPad Prism (FIG. 13A-B).
The OVCAR3 human ovarian carcinoma cell line was grown in RPMI-1640/1× Glutamax/1× Insulin/10% fetal bovine serum and was plated at 300,000 cells/well in Corning 6 cm tissue culture treated plates. […] At 24 hours, the remaining plates were rinsed with media before un-treated media was added back. Cells were collected at the indicated times, with 10 μM EdU added for the last hour (FIG. 14A). Cells were collected and fixed in 1% paraformaldehyde. Cells were incubated with Pacific blue azide dye as described by Thermo Scientific. Cells were then incubated with FarRed dye and RNase. Cells were analyzed on a BD Celesta and data compiled using FloJo and GraphPad. […] By 18 hours, OVCAR-3 cells were in G2 or reentering G1. Cells appeared to remain somewhat synchronized over 48 hours.
The OVCAR3 human ovarian carcinoma cell line was grown in RPMI-1640/1× Glutamax/1× Insulin/10% fetal bovine serum and was plated at 300,000 cells/well in Corning 6 cm tissue culture treated plates. […] Cells were divided into two sets. The first set was treated for the indicated amount of time, with 10 μM EdU added for the last hour of treatment before being collected. The second set of cells were treated for the indicated amount of time and had EdU added for one hour before the timepoint. Then the media was aspirated, the cells washed, and re-treated with treatment media. The second set of cells was collected at 48 hours, allowing for tracing of the EdU positive cells. Cells were collected and fixed in 1% paraformaldehyde. Cells were incubated with Alexa 488 (A488) azide dye as described by Thermo Scientific. Cells were then incubated with FarRed dye and RNase. Cells were analyzed on a BD Celesta and data compiled using FloJo and GraphPad. […] Several “snap shots” of cells at various timepoints, followed by where the cells from S phase ended up at the end of 48 hours of treatment, were collected. […] It appears that the cells in S phase at after 6 hours of treatment are arresting in G1 (FIG. 15B). At 24 hours of treatment, little to no cells were in S phase so there were no cells to trace (FIG. 15C). Although the DMSO sample appears largely different at 48 hours, the distribution appears similar to the DMSO, EdU free cells at 48 hours. […] (FIG. 15D).

PA-1 cells = experiment: CellTiter Glo cell proliferation assay; type: cell-based; settings: lacking cyclin E amplification
Description: (§3) Plates were returned to the incubator for six additional days. On day six post dosing, plates were removed and treated with CellTiter Glo reagent following manufacturer's specifications. Plates were incubated 45 minutes at room temperature and run on Biotek luminometer with 1 sec/well detection. Results were converted to Microsoft Excel and transferred to Graphpad Prism for analysis. […] These cell types are distinguished by either gained of cyclin E1 expression or activation (Kuramochi) or intrinsic amplification of cyclin E1 (OVCAR-3, COV318).

SKOV3 cells = experiment: CellTiter Glo cell proliferation assay; type: cell-based; settings: lacking cyclin E amplification
Description: as §3

[2] = 100 nM Compound I with camptothecin dose curve, 6 days

NS(=O)(=O)c1ccc(Nc2ncc3cc4n(c3n2)C2(CCCCC2)C(=O)NN4)cc1 [Compound I]
cellular proliferation IC50, combined with camptothecin, versus single agents (H69 (NCIH69) cells; [2]): lower IC50 value | inhibition compared with palbociclib (H69 (NCIH69) cells; six days): low nanomolar concentrations | cellular proliferation IC50, combined with camptothecin, versus single agents (SHP77 cells; [2]): comparable | inhibition compared with palbociclib (SHP77 cells; six days): low nanomolar concentrations | pRb levels [1]: dose-dependent response decrease in pRb levels | cell cycle distribution with increasing concentrations (OVCAR-3 cells; 10 nM to 10 μM, 24 hours): exit the S-phase and increasingly occupy the G0-G1 phase | G1 arrest over 48 h (OVCAR-3 cells; 100 nM): does not arrest all cells in G1 | G1 arrest over 48 h (OVCAR-3 cells; 300 nM): performs just as well | cells arrested in G1 (OVCAR-3 cells; 300 nM, 24 hours): Approximately 80% | cells proceeding to S phase compared with PF-07104091 (OVCAR-3 cells; 1, 6, 24 and 48 hours of treatment): permits fewer cells to proceed to S phase | fate of cells in S phase at treatment initiation (EdU tracing) (OVCAR-3 cells; traced to 48 hours): become arrested in G1 | inhibition compared with palbociclib (PA-1 cells): comparable to palbociclib alone | inhibition compared with palbociclib (SKOV3 cells): comparable to palbociclib alone
